# In PMC11157767 (Molecular Cancer, 2024):
# Tested on: TFG-MET allograft tumors
# Assay: RNA-sequencing, differential expression and GSEA of TFG-MET allograft tumors
# Type: in vivo, mouse
# Conditions: GSEA CAP vs Veh, C5 GO CC
# Description: Error bars display standard error of mean, statistical significance was determined using t-test analysis. (****;p<0.0001, ***;p<0.001, **;p<0.01, *;p<0.05). […] Each dot represents an individual replicate. Error bars display standard error of the mean.
# Each dot represents one gene.
structure (smiles),measurement,setting,value
CNC(=O)c1ccc(-c2cnc3ncc(Cc4ccc5ncccc5c4)n3n2)cc1F [Capmatinib],NES GOCC_U12_TYPE_SPLICEOSOMAL_COMPLEX,padj 0.00985351,-1.841
same,NES GOCC_ENDOCYTIC_VESICLE_MEMBRANE,padj 0.00993117,1.48
same,NES GOCC_MAIN_AXON,padj 0.0105942,1.71
same,NES GOCC_CILIARY_TIP,padj 0.0106966,1.78
same,NES GOCC_CILIARY_BASAL_BODY,padj 0.0123456,1.449
same,NES GOCC_RNA_POLYMERASE_III_COMPLEX,padj 0.0128749,-1.798
same,NES GOCC_CATION_CHANNEL_COMPLEX,padj 0.0130428,1.45
same,NES GOCC_PROTON_TRANSPORTING_TWO_SECTOR_ATPASE_COMPLEX_CATALYTIC_DOMAIN,padj 0.0138609,1.892
same,NES GOCC_SPECIFIC_GRANULE_MEMBRANE,padj 0.0141171,1.543
same,NES GOCC_SWI_SNF_SUPERFAMILY_TYPE_COMPLEX,padj 0.0141171,-1.631
same,NES GOCC_U1_SNRNP,padj 0.015809,-1.765
same,NES GOCC_MICROBODY,padj 0.0162979,1.4892
same,NES GOCC_CHAPERONE_COMPLEX,padj 0.0163882,-1.777
same,NES GOCC_SPINDLE,padj 0.0181265,-1.395
same,NES GOCC_AUTOPHAGOSOME_MEMBRANE,padj 0.0181579,1.734
same,NES GOCC_DNA_POLYMERASE_COMPLEX,padj 0.0181579,-1.786
same,NES GOCC_P_BODY,padj 0.0181579,-1.619
same,NES GOCC_MHC_CLASS_I_PROTEIN_COMPLEX,padj 0.0188701,1.849
same,NES GOCC_AZUROPHIL_GRANULE_MEMBRANE,padj 0.0193916,1.659
same,NES GOCC_EXOCYTIC_VESICLE,padj 0.0193916,1.3878
same,NES GOCC_EXON_EXON_JUNCTION_COMPLEX,padj 0.0194501,-1.776
same,NES GOCC_SPLICEOSOMAL_TRI_SNRNP_COMPLEX,padj 0.0201459,-1.73
same,NES GOCC_PLASMA_MEMBRANE_PROTEIN_COMPLEX,padj 0.0211865,1.208
same,NES GOCC_SPINDLE_POLE,padj 0.0236958,-1.485
same,NES GOCC_CYTOPLASMIC_REGION,padj 0.0239917,1.358
same,NES GOCC_RIBOSOME,padj 0.0240328,-1.42
same,NES GOCC_RNA_POLYMERASE_II_HOLOENZYME,padj 0.0260741,-1.585
same,NES GOCC_PROTEIN_LIPID_COMPLEX,padj 0.030494,1.7122
same,NES GOCC_CENTROSOME,padj 0.0306446,-1.299
same,NES GOCC_PROTEASOME_CORE_COMPLEX,padj 0.0307775,1.722
same,NES GOCC_PROTON_TRANSPORTING_V_TYPE_ATPASE_COMPLEX,padj 0.0307775,1.755
same,NES GOCC_SNARE_COMPLEX,padj 0.0312218,1.596
same,NES GOCC_BLOC_COMPLEX,padj 0.0315137,1.832
same,NES GOCC_INTRACILIARY_TRANSPORT_PARTICLE_B,padj 0.0329395,1.825
same,NES GOCC_POLYSOMAL_RIBOSOME,padj 0.0334435,-1.667
same,NES GOCC_AP_TYPE_MEMBRANE_COAT_ADAPTOR_COMPLEX,padj 0.0422332,1.673
same,NES GOCC_9PLUS0_NON_MOTILE_CILIUM,padj 0.0467153,1.3799
same,NES GOCC_PROTON_TRANSPORTING_ATP_SYNTHASE_COMPLEX,padj 0.0488031,1.779
same,NES GOCC_SEX_CHROMOSOME,padj 0.0490653,-1.646
same,NES GOCC_U2_SNRNP,padj 0.0543003,-1.648
same,NES GOCC_ENDOCYTIC_VESICLE,padj 0.0582082,1.305
same,NES GOCC_HIGH_DENSITY_LIPOPROTEIN_PARTICLE,padj 0.0591592,1.639
same,NES GOCC_REPLISOME,padj 0.0619841,-1.586
same,NES GOCC_ANCHORED_COMPONENT_OF_MEMBRANE,padj 0.0629656,1.328
same,NES GOCC_INTRINSIC_COMPONENT_OF_SYNAPTIC_VESICLE_MEMBRANE,padj 0.0629656,1.526
same,NES GOCC_MULTIVESICULAR_BODY,padj 0.063611,1.4828
same,NES GOCC_NURD_COMPLEX,padj 0.0667331,-1.604
same,NES GOCC_CYTOPLASMIC_MICROTUBULE,padj 0.0742121,1.415
same,NES GOCC_PHOTORECEPTOR_CONNECTING_CILIUM,padj 0.0825356,1.523
same,NES GOCC_REGION_OF_CYTOSOL,padj 0.0834337,-1.574
same,NES GOCC_FILOPODIUM_MEMBRANE,padj 0.0837675,-1.564
